Patent publication US20240190838A1, “LZK-TARGETING DEGRADERS AND METHODS OF USE” (The U.S.A., as represented by the Secretary, Department of …, priority 2020, published 2024)
≈ marks a conversion by molar mass, not a printed value. Where two headings read alike, the source gives them in different places.

How the values were obtained:
[1] = Parallel artificial membrane permeability assay (PAMPA); assay type: in vitro ADME; details: for Ratio of mean permeability (×10^4 cm/s) related to low permeability control (atenolol): Table 7
LZK [2] = target: T1, LZK (Homo sapiens, UniProt O43283); assay: LZK degradation (doxycycline-induced LZK expression, immunoblot) in CAL33 cells; assay type: cell-based; design: V5 (named only in the vector); expressed in transfected cells; host or cells: CAL33 HNSCC cells, lentiviral T-REx system, induced with doxycycline; details: for LZK degradation / dox-induced LZK expression: CAL33, doxycycline 48 hours, LZK PROTAC 24 hours, 0-10 μM; for dox-induced LZK expression at high concentrations: 24 hours
T1 sequence (O43283 1-966): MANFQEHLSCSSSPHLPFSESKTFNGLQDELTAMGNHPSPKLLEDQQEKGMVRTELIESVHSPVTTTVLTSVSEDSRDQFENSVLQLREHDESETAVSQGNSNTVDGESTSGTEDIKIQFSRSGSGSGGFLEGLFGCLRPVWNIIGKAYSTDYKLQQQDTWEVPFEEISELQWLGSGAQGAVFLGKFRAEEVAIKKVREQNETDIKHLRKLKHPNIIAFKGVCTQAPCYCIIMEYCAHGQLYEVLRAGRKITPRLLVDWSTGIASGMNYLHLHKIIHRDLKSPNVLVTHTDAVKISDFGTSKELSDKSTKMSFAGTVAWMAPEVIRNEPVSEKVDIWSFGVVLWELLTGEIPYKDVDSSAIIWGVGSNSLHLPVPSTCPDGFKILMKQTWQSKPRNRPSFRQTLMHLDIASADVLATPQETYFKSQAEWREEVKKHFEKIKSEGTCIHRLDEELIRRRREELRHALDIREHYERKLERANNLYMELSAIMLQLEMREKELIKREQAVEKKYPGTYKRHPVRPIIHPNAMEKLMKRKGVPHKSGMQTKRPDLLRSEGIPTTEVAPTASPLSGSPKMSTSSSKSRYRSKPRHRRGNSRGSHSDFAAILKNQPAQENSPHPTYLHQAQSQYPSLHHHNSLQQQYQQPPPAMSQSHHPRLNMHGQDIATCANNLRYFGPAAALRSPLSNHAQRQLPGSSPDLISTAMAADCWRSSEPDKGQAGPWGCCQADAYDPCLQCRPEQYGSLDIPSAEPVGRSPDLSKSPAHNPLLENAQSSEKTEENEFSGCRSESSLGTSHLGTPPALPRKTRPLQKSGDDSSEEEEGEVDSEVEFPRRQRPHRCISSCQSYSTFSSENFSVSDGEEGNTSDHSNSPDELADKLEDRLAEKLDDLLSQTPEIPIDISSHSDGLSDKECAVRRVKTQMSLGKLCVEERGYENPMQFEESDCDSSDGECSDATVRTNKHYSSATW
Source text: (§1) The ViraPower HiPerform T-REx Gateway Expression System (Invitrogen) was used to generate cells with tetracycline-inducible expression of LZK. In brief, wild-type (WT) or drug-resistant mutant (Q240S) LZK (cloned into pLenti6.3/TO/V5-DEST vector) and pLenti3.3/TR (for tetracycline repressor expression) were transfected into 293FT cells using Lipofectamine 2000 to generate lentiviral stock. Cell lines were generated by antibiotic selection (blasticidin [Gibco] and geneticin [Gibco]). Doxycycline (Sigma-Aldrich) was used at 1 μg/mL to induce LZK expression.
(§2) Generally, cells were plated in six-well or 35-mm plates for 24 hours, after which doxycycline was added or treatment with specific inhibitor was administered using […] for 48 hours. After appropriate treatment time, cells were washed with ice-cold phosphate-buffered saline without Ca and Mg (Quality Biological) and then lysed on ice with RIPA buffer (50 mM NaCl, 1.0% o IGEPAL® CA-630, 0.5% o sodium deoxycholate, 0.10% SDS, 50 mM Tris, pH 8.0) (Sigma-Aldrich) supplemented with protease inhibitor tablet (Sigma-Aldrich) and phosphatase inhibitor cocktails 2 and 3 (Sigma-Aldrich) followed by centrifugation at 15,000 rpm for 10 minutes at 4° C. Protein concentrations were determined from the cell lysate by using 660 nm Protein Assay Reagent (Pierce). Cell extracts were denatured, subjected to SDS-PAGE, transferred to PVDF membranes (Bio-Rad) and blocked for 2 hours using 5 bovine serum albumin (BSA) in phosphate-buffered saline and 0.10 Tween® 20 (PBS-T). The membranes were incubated with the specific antibodies overnight in […] at 4° C. followed by a 1 hour incubation with the appropriate horseradish peroxidase-conjugated secondary antibodies and signal was detected by chemiluminescence (Thermo Fisher).

LZK [3] = target: T1, LZK; assay: LZK inhibition in cells monitored by downstream JNK phosphorylation (dox-induced LZK); assay type: cell-based; design: V5 (named only in the vector); expressed in transfected cells; host or cells: CAL33 HNSCC cells, lentiviral T-REx system, induced with doxycycline
Source text: as §1, §2
A PathScan® Phospho-SAPK/JNK (Thr183/Tyr185) Sandwich ELISA Assay (Cell Signaling Technology) was used for ELISA assays following the manufacturer's protocol. In general, 500,000 cells were plated and treated with doxycycline the following day where appropriate and incubated at 37° C. for 48 hours. Cells were treated with the drug compound or control in 5% FBS media for 1 hour. After appropriate treatment time, cells were lysed on ice with 1x Cell Lysis Buffer (Cell Signaling Technology) supplemented with phosphatase and protease inhibitors (Sigma). Each diluted cell lysate was added to Phospho-SAPK/JNK (Thr183/Tyr185)Rabbit mAb Coated microwells in triplicate and incubated overnight at 4° C. Samples were treated with the following antibodies and incubated at 37° C. for 1 hour and 30 minutes, respectively: Detection Antibody and HRP-Linked secondary antibody. Samples were washed between treatments using 1× Wash Buffer according to the manufacturer's protocol. TMB substrate was added to each well and incubated at 37° C. for 10 minutes. Following this, STOPsolution was added to each well and absorbance was measured at 450 nm using iMark™ Microplate Absorbance Reader (Bio-Rad). Graphs display relative phospho-JNK levels.

Kinetic solubility assay = assay type: physicochemical; details: kinetic from dmso stock
[4] = Rat liver microsomal (RLM) stability assay; assay type: in vitro ADME; details: rat liver microsomes; read-out: RLM Stability (t1/2)

For `Cc1ncsc1-c1ccc([C@H](C)NC(=O)[C@@H]2C[C@@H](O)CN2C(=O)[C@@H](NC(=O)[C@H]2CC[C@@H]2C(=O)N2CCC(c3cc(Nc4cc(C#N)ccn4)nc(N4CCC(F)(F)C4)c3)CC2)C(C)(C)C)cc1` (single isomer, unassigned) [Compound 25], the “Ratio of mean permeability (×10^4 cm/s) related to low permeability control (atenolol)” value (“Ratio of mean permeability” below) [1] was 0.43.
For `Cc1ncsc1-c1ccc([C@H](C)NC(=O)[C@@H]2C[C@@H](O)CN2C(=O)[C@@H](NC(=O)[C@H]2CC[C@H]2C(=O)N2CCC(c3cc(Nc4cc(C#N)ccn4)nc(N4CCC(F)(F)C4)c3)CC2)C(C)(C)C)cc1` (single isomer, unassigned) [Compound 26], the “Ratio of mean permeability” value [1] was 1.47.
With `Cc1ncsc1-c1ccc([C@H](C)NC(=O)[C@@H]2C[C@@H](O)CN2C(=O)[C@@H](NC(=O)CCCCCCC(=O)N2CCC(c3cc(Nc4cc(C(F)(F)F)ccn4)nc(N4CCC(F)(F)C4)c3)CC2)C(C)(C)C)cc1` [Compound 4] the “LZK degradation / dox-induced LZK expression” value (LZK [2]) was “ineffective at degrading LZK” and the “dox-induced LZK expression at high concentrations” value (LZK [2]) was “slightly decreased dox-induced LZK expression”.
In the case of `O=C(CCCCCCC(=O)N1CCC(c2cc(Nc3cc(C(F)(F)F)ccn3)nc(N3CCC(F)(F)C3)c2)CC1)NCCCCNC(=O)CNc1cccc2c1C(=O)N(C1CCC(=O)NC1=O)C2=O` (stereo not shown) [Compound 5], the “JNK signaling inhibition by targeted degraders” value (LZK [3]; CAL33 cells induced with doxycycline, 0-10 μM) is reported as “inhibited LZK”, the “LZK degradation / dox-induced LZK expression” value (LZK [2]) is reported as “ineffective at degrading LZK” and the “dox-induced LZK expression at high concentrations” value (LZK [2]) is reported as “slightly decreased dox-induced LZK expression”.
`Cc1ncsc1-c1ccc([C@H](C)NC(=O)[C@@H]2C[C@@H](O)CN2C(=O)[C@@H](NC(=O)c2cncc(C(=O)N3CCC(c4cc(Nc5cc(C#N)ccn5)nc(N5CCC(F)(F)C5)c4)CC3)c2)C(C)(C)C)cc1` [Compound 7] gave a solubility (Kinetic solubility assay) of 26 µg/mL (≈ 27.1 µM), a half-life [4] greater than 30 min and a Papp ([1]; pH 7.4) of less than 1 ×10⁻⁶ cm/s.
With `Cc1ncsc1-c1ccc([C@H](C)NC(=O)[C@@H]2C[C@@H](O)CN2C(=O)[C@@H](NCc2cccc(CN3CCC(c4cc(Nc5cc(C#N)ccn5)nc(N5CCC(F)(F)C5)c4)CC3)n2)C(C)(C)C)cc1` [Compound 9] the “Ratio of mean permeability” value [1] was −0.46.
In the case of `Cc1ncsc1-c1ccc([C@H](C)NC(=O)[C@@H]2C[C@@H](O)CN2C(=O)[C@@H](NC(=O)CCCCC(=O)N2CCC(c3cc(Nc4cc(C#N)ccn4)nc(N4CCC(F)(F)C4)c3)CC2)C(C)(C)C)cc1` [Compound 12], the “Ratio of mean permeability” value [1] is reported as 0.61.
In the case of `Cc1ncsc1-c1ccc([C@H](C)NC(=O)[C@@H]2C[C@@H](O)CN2C(=O)[C@@H](NCc2ccc(C(=O)N3CCC(c4cc(Nc5cc(C#N)ccn5)nc(N5CCC(F)(F)C5)c4)CC3)cc2)C(C)(C)C)cc1` [Compound 13], the “Ratio of mean permeability” value [1] is reported as 1.31.
For `Cc1ncsc1-c1ccc([C@H](C)NC(=O)[C@@H]2C[C@@H](O)CN2C(=O)[C@@H](NC(=O)CCC(=O)N2CCC(c3cc(Nc4cc(C#N)ccn4)nc(N4CCC(F)(F)C4)c3)CC2)C(C)(C)C)cc1` [Compound 14], the “Ratio of mean permeability” value [1] was −0.51.
For `Cc1ncsc1-c1ccc([C@H](C)NC(=O)[C@@H]2C[C@@H](O)CN2C(=O)[C@@H](NC(=O)c2ccc(C(=O)N3CCC(c4cc(Nc5cc(C#N)ccn5)nc(N5CCC(F)(F)C5)c4)CC3)cc2)C(C)(C)C)cc1` [Compound 15], the “Ratio of mean permeability” value [1] was −0.14.
For `Cc1ncsc1-c1ccc([C@H](C)NC(=O)[C@@H]2C[C@@H](O)CN2C(=O)[C@@H](NC(=O)c2cc(C(=O)N3CCC(c4cc(Nc5cc(C#N)ccn5)nc(N5CCC(F)(F)C5)c4)CC3)ncn2)C(C)(C)C)cc1` [Compound 20], the “Ratio of mean permeability” value [1] was −0.01.
In the case of `Cc1ncsc1-c1ccc([C@H](C)NC(=O)[C@@H]2C[C@@H](O)CN2C(=O)[C@@H](NC(=O)c2ccc(C(=O)N3CCC(c4cc(Nc5cc(C#N)ccn5)nc(N5CCC(F)(F)C5)c4)CC3)nn2)C(C)(C)C)cc1` [Compound 21], the “Ratio of mean permeability” value [1] is reported as −0.11.
For `Cc1ncsc1-c1ccc([C@H](C)NC(=O)[C@@H]2C[C@@H](O)CN2C(=O)[C@@H](NC(=O)[C@H]2C[C@H](C(=O)N3CCC(c4cc(Nc5cc(C#N)ccn5)nc(N5CCC(F)(F)C5)c4)CC3)C2)C(C)(C)C)cc1` [Compound 24], the “Ratio of mean permeability” value [1] was 6.74.
In the case of `Cc1ncsc1-c1ccc([C@H](C)NC(=O)[C@@H]2C[C@@H](O)CN2C(=O)[C@@H](NC(=O)N2CCC(c3cc(Nc4cc(C#N)ccn4)nc(N4CCC(F)(F)C4)c3)CC2)C(C)(C)C)cc1` [Compound 27], the “Ratio of mean permeability” value [1] is reported as 0.01.
For `Cc1ncsc1-c1ccc([C@H](C)NC(=O)[C@@H]2C[C@@H](O)CN2C(=O)[C@@H](NCC(=O)N2CCC(c3cc(Nc4cc(C#N)ccn4)nc(N4CCC(F)(F)C4)c3)CC2)C(C)(C)C)cc1` [Compound 28], the “Ratio of mean permeability” value [1] was −1.86.
In the case of `Cc1ncsc1-c1ccc([C@H](C)NC(=O)[C@@H]2C[C@@H](O)CN2C(=O)[C@@H](NC(=O)[C@H](CCC(=O)N2CCC(c3cc(Nc4cc(C#N)ccn4)nc(N4CCC(F)(F)C4)c3)CC2)NC(=O)C(N)CCCNC(=N)N)C(C)(C)C)cc1` (stereo partly shown) [Compound 29], the “Ratio of mean permeability” value [1] is reported as 6.74.
With `C[C@@H](C(=O)N[C@H](C(=O)N1C[C@@H](NC(=O)CCCCCCC(=O)N2CCC(c3cc(Nc4cc(C#N)ccn4)nc(N4CCC(F)(F)C4)c3)CC2)C[C@H]1C(=O)N[C@@H]1CCCc2ccccc21)C1CCCCC1)N(C)C(=O)OC(C)(C)C` [Compound 30] the “LZK degradation / dox-induced LZK expression” value (LZK [2]) was “did not degrade LZK”, the “Ratio of mean permeability” value [1] was 0.05 and the Papp ([1]; Table 7, read-out: Mean permeability) was 0.0001 ×10⁻⁶ cm/s.
In the case of `FC1(F)CCN(c2cc(C3CCNCC3)cc(Nc3cc(C(F)(F)F)ccn3)n2)C1` [LZK inhibitor 1], the “LZK inhibition in cells, measured by inhibition of downstream JNK pathway activation” value (LZK [3]; dox-inducible LZK in CAL33 cells) is reported as “poor LZK inhibitor in cells”.
